Source: PubChem BioAssay (NCI)
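All cell lines were grown in 96-well plates and treated with compound for 48 hours. The concentration for full growth arrest is given as TGI.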

Legend:
Test in all cases: NCI-60 cell line screen, 48 h
ACHN renal = test system: ACHN renal
M14 melanoma = test system: M14 melanoma
NCI-H23 lung = test system: NCI-H23 lung
UACC-257 melanoma = test system: UACC-257 melanoma
A549 NSCLC = test system: A549 NSCLC
SK-OV-3 ovarian = test system: SK-OV-3 ovarian
EKVX NSCLC = test system: EKVX NSCLC
IGROV1 ovarian = test system: IGROV1 ovarian
M19-MEL melanoma = test system: M19-MEL melanoma
HCT-15 colon = test system: HCT-15 colon
HOP-18 NSCLC = test system: HOP-18 NSCLC
DLD-1 colon = test system: DLD-1 colon
SNB-19 CNS = test system: SNB-19 CNS
UACC-62 melanoma = test system: UACC-62 melanoma
OVCAR-3 ovarian = test system: OVCAR-3 ovarian
SNB-75 CNS = test system: SNB-75 CNS
SF-295 CNS = test system: SF-295 CNS
786-0 renal = test system: 786-0 renal
RXF-631 renal = test system: RXF-631 renal
A498 renal = test system: A498 renal
OVCAR-8 ovarian = test system: OVCAR-8 ovarian
HT29 colon = test system: HT29 colon
K-562 leukemia = test system: K-562 leukemia
SK-MEL-5 melanoma = test system: SK-MEL-5 melanoma
COLO 205 colon = test system: COLO 205 colon
NCI-H522 lung = test system: NCI-H522 lung
DMS 114 small cell lung = test system: DMS 114 small cell lung
MALME-3M melanoma = test system: MALME-3M melanoma
HOP-62 NSCLC = test system: HOP-62 NSCLC
U251 CNS = test system: U251 CNS
HL-60(TB) leukemia = test system: HL-60(TB) leukemia
SF-268 CNS = test system: SF-268 CNS
OVCAR-4 ovarian = test system: OVCAR-4 ovarian
KM20L2 colon = test system: KM20L2 colon
SK-MEL-2 melanoma = test system: SK-MEL-2 melanoma
HOP-92 NSCLC = test system: HOP-92 NSCLC
NCI-H226 lung = test system: NCI-H226 lung
CAKI-1 renal = test system: CAKI-1 renal
KM12 colon = test system: KM12 colon
RPMI-8226 leukemia = test system: RPMI-8226 leukemia
SF-539 CNS = test system: SF-539 CNS
NCI-H460 lung = test system: NCI-H460 lung
SNB-78 CNS = test system: SNB-78 CNS
MOLT-4 leukemia = test system: MOLT-4 leukemia
HCT-116 colon = test system: HCT-116 colon
LXFL 529 NSCLC = test system: LXFL 529 NSCLC
LOX IMVI melanoma = test system: LOX IMVI melanoma
OVCAR-5 ovarian = test system: OVCAR-5 ovarian
SR leukemia = test system: SR leukemia
SW-620 colon = test system: SW-620 colon
SN12C renal = test system: SN12C renal
TK-10 renal = test system: TK-10 renal
UO-31 renal = test system: UO-31 renal
CCRF-CEM leukemia = test system: CCRF-CEM leukemia
SK-MEL-28 melanoma = test system: SK-MEL-28 melanoma
DU-145 prostate = test system: DU-145 prostate
HCC-2998 colon = test system: HCC-2998 colon
NCI/ADR-RES ovarian = test system: NCI/ADR-RES ovarian
MDA-N = test system: MDA-N
RXF 393 renal = test system: RXF 393 renal
DMS 273 small cell lung = test system: DMS 273 small cell lung
HS 578T breast = test system: HS 578T breast
PC-3 prostate = test system: PC-3 prostate
BT-549 breast = test system: BT-549 breast
MDA-MB-231 breast = test system: MDA-MB-231 breast
MDA-MB-435 = test system: MDA-MB-435
T-47D breast = test system: T-47D breast
XF 498 CNS = test system: XF 498 CNS
MCF7 breast = test system: MCF7 breast

CC(=O)Nc1ccccc1-c1nc2ccccc2nc1C
TGI (ACHN renal): > 100 µM
TGI (M14 melanoma): > 100 µM
TGI (NCI-H23 lung): > 100 µM
TGI (UACC-257 melanoma): > 100 µM
TGI (A549 NSCLC): > 100 µM
TGI (SK-OV-3 ovarian): > 100 µM
TGI (EKVX NSCLC): > 100 µM
TGI (IGROV1 ovarian): > 100 µM
TGI (M19-MEL melanoma): > 100 µM
TGI (HCT-15 colon): > 100 µM
TGI (HOP-18 NSCLC): > 100 µM
TGI (DLD-1 colon): > 100 µM
TGI (SNB-19 CNS): > 100 µM
TGI (UACC-62 melanoma): > 100 µM
TGI (OVCAR-3 ovarian): > 100 µM
TGI (SNB-75 CNS): > 100 µM
TGI (SF-295 CNS): > 100 µM
TGI (786-0 renal): > 100 µM
TGI (RXF-631 renal): > 100 µM
TGI (A498 renal): > 100 µM
TGI (OVCAR-8 ovarian): > 100 µM
TGI (HT29 colon): > 100 µM
TGI (K-562 leukemia): > 100 µM
TGI (SK-MEL-5 melanoma): > 100 µM
TGI (COLO 205 colon): > 100 µM
TGI (NCI-H522 lung): > 100 µM
TGI (DMS 114 small cell lung): > 100 µM
TGI (MALME-3M melanoma): > 100 µM
TGI (HOP-62 NSCLC): > 100 µM
TGI (U251 CNS): > 100 µM
TGI (HL-60(TB) leukemia): > 100 µM
TGI (SF-268 CNS): > 100 µM
TGI (OVCAR-4 ovarian): > 100 µM
TGI (KM20L2 colon): > 100 µM
TGI (SK-MEL-2 melanoma): > 100 µM
TGI (HOP-92 NSCLC): > 100 µM
TGI (NCI-H226 lung): > 100 µM
TGI (CAKI-1 renal): > 100 µM
TGI (KM12 colon): > 100 µM
TGI (RPMI-8226 leukemia): > 100 µM
TGI (SF-539 CNS): > 100 µM
TGI (NCI-H460 lung): > 100 µM
TGI (SNB-78 CNS): > 100 µM
TGI (MOLT-4 leukemia): > 100 µM
TGI (HCT-116 colon): > 100 µM
TGI (LXFL 529 NSCLC): > 100 µM
TGI (LOX IMVI melanoma): > 100 µM
TGI (OVCAR-5 ovarian): > 100 µM
TGI (SR leukemia): > 100 µM
TGI (SW-620 colon): > 100 µM
TGI (SN12C renal): > 100 µM
TGI (TK-10 renal): > 100 µM
TGI (UO-31 renal): > 100 µM
TGI (CCRF-CEM leukemia): > 100 µM
TGI (SK-MEL-28 melanoma): > 100 µM

Nc1nc2c(ncn2C2CCC(CO)O2)c(=O)n1C(=O)c1ccccc1 (stereo not drawn)
TGI (ACHN renal): > 100 µM
TGI (M14 melanoma): > 100 µM
TGI (NCI-H23 lung): > 100 µM
TGI (UACC-257 melanoma): > 100 µM
TGI (A549 NSCLC): > 100 µM
TGI (SK-OV-3 ovarian): > 100 µM
TGI (EKVX NSCLC): > 100 µM
TGI (IGROV1 ovarian): > 100 µM
TGI (DU-145 prostate): > 100 µM
TGI (M19-MEL melanoma): > 100 µM
TGI (HCT-15 colon): > 100 µM
TGI (HCC-2998 colon): > 100 µM
TGI (DLD-1 colon): > 100 µM
TGI (SNB-19 CNS): > 100 µM
TGI (NCI/ADR-RES ovarian): > 100 µM
TGI (UACC-62 melanoma): > 100 µM
TGI (OVCAR-3 ovarian): > 100 µM
TGI (SNB-75 CNS): > 100 µM
TGI (SF-295 CNS): > 100 µM
TGI (786-0 renal): > 100 µM
TGI (MDA-N): > 100 µM
TGI (RXF 393 renal): > 100 µM
TGI (RXF-631 renal): > 100 µM
TGI (A498 renal): > 100 µM
TGI (OVCAR-8 ovarian): > 100 µM
TGI (DMS 273 small cell lung): > 100 µM
TGI (HT29 colon): > 100 µM
TGI (K-562 leukemia): > 100 µM
TGI (SK-MEL-5 melanoma): > 100 µM
TGI (COLO 205 colon): > 100 µM
TGI (NCI-H522 lung): > 100 µM
TGI (HS 578T breast): > 100 µM
TGI (DMS 114 small cell lung): > 100 µM
TGI (MALME-3M melanoma): > 100 µM
TGI (HOP-62 NSCLC): > 100 µM
TGI (U251 CNS): > 100 µM
TGI (HL-60(TB) leukemia): > 100 µM
TGI (SF-268 CNS): > 100 µM
TGI (OVCAR-4 ovarian): > 100 µM
TGI (PC-3 prostate): > 100 µM
TGI (BT-549 breast): > 100 µM
TGI (KM20L2 colon): > 100 µM
TGI (SK-MEL-2 melanoma): > 100 µM
TGI (HOP-92 NSCLC): > 100 µM
TGI (NCI-H226 lung): > 100 µM
TGI (CAKI-1 renal): > 100 µM
TGI (KM12 colon): > 100 µM
TGI (MDA-MB-231 breast): > 100 µM
TGI (RPMI-8226 leukemia): > 100 µM
TGI (SF-539 CNS): > 100 µM
TGI (NCI-H460 lung): > 100 µM
TGI (MDA-MB-435): > 100 µM
TGI (MOLT-4 leukemia): > 100 µM
TGI (HCT-116 colon): > 100 µM
TGI (LXFL 529 NSCLC): > 100 µM
TGI (LOX IMVI melanoma): > 100 µM
TGI (T-47D breast): > 100 µM
TGI (XF 498 CNS): > 100 µM
TGI (OVCAR-5 ovarian): > 100 µM
TGI (MCF7 breast): > 100 µM
TGI (SR leukemia): > 100 µM
TGI (SW-620 colon): > 100 µM
TGI (SN12C renal): > 100 µM
TGI (TK-10 renal): > 100 µM
TGI (UO-31 renal): > 100 µM
TGI (CCRF-CEM leukemia): > 100 µM
TGI (SK-MEL-28 melanoma): > 100 µM

Cc1cc([N+](=O)[O-])ccc1NC(=O)C(=O)C(C(=O)c1ccccc1-c1ccccc1)C1OC(=O)c2ccccc21 (stereo not drawn)
TGI (ACHN renal): > 100 µM
TGI (M14 melanoma): 27.4 µM
TGI (NCI-H23 lung): 80 µM
TGI (UACC-257 melanoma): 86.5 µM
TGI (A549 NSCLC): > 100 µM
TGI (SK-OV-3 ovarian): 65.6 µM
TGI (IGROV1 ovarian): 67.8 µM
TGI (M19-MEL melanoma): 28.8 µM
TGI (HCT-15 colon): 36.8 µM
TGI (HOP-18 NSCLC): 37.4 µM
TGI (HCC-2998 colon): 29.1 µM
TGI (SNB-19 CNS): 12.3 µM
TGI (UACC-62 melanoma): 13.5 µM
TGI (SF-295 CNS): 50.9 µM
TGI (786-0 renal): 32.5 µM
TGI (RXF 393 renal): 19.5 µM
TGI (RXF-631 renal): 22.7 µM
TGI (OVCAR-8 ovarian): 77.1 µM
TGI (DMS 273 small cell lung): 25.5 µM
TGI (HT29 colon): 41.9 µM
TGI (K-562 leukemia): 89.3 µM
TGI (SK-MEL-5 melanoma): 28.7 µM
TGI (COLO 205 colon): 41.8 µM
TGI (NCI-H522 lung): 26.2 µM
TGI (DMS 114 small cell lung): 27.6 µM
TGI (MALME-3M melanoma): 29.9 µM
TGI (U251 CNS): 26 µM
TGI (SF-268 CNS): 58.1 µM
TGI (OVCAR-4 ovarian): 77.9 µM
TGI (KM20L2 colon): 15.5 µM
TGI (SK-MEL-2 melanoma): 29.2 µM
TGI (HOP-92 NSCLC): 34 µM
TGI (NCI-H226 lung): 28.5 µM
TGI (CAKI-1 renal): 59.5 µM
TGI (KM12 colon): 32.5 µM
TGI (RPMI-8226 leukemia): 98 µM
TGI (SF-539 CNS): 21.7 µM
TGI (NCI-H460 lung): 38.2 µM
TGI (SNB-78 CNS): 58.7 µM
TGI (MOLT-4 leukemia): 72.2 µM
TGI (HCT-116 colon): 29.9 µM
TGI (LXFL 529 NSCLC): 30 µM
TGI (XF 498 CNS): 17.6 µM
TGI (OVCAR-5 ovarian): 28.9 µM
TGI (SR leukemia): 54.7 µM
TGI (SW-620 colon): 36.6 µM
TGI (SN12C renal): 37.4 µM
TGI (TK-10 renal): 33.8 µM
TGI (UO-31 renal): 31.3 µM
TGI (CCRF-CEM leukemia): > 100 µM
TGI (SK-MEL-28 melanoma): > 100 µM
